Laboratory results reported in publication PMC9729826, “Hypoaminoacidemia underpins glucagon-mediated energy expenditure and weight loss” (Cell Reports Medicine, 2022).
Starred links: 1 amine or outer side, 2 acyl side, 3 side chain; linkers in the order of their positions; H or OH if unused. Non-standard residues stand in square brackets, D forms with d. Residues, ends and D or L forms follow the SMILES beside them. Groups on a side chain read outwards from the residue. *: point of attachment. C18 diacid = O=C(O)CCCCCCCCCCCCCCCCC(=O)*; γGlu = O=C(O)[C@H](CCC(=O)[*:2])N[*:1]; Aib = CC(C)(N)C(=O)O

Tests used:
[1] = system: diet-induced obese (DIO) C57BL/6 mice; assay: Essential and non-essential amino acid supplementation in G108-treated DIO mice; assay type: in vivo, mouse; settings: 7.5 nmol/kg daily, 14 days, n = 8/group
From the text: Lean 10-week-old C57BL/6 mice (N = 48) were provided ad libitum with a 60 kcal% high fat diet (diet D12492, Table S2) for 8 weeks. They were then provided with either a high fat standard protein diet (SP) (D08091803), a high fat standard protein diet supplemented with essential amino acids (SP + EAA) (Formula 2, Table S3), or a high fat standard protein diet supplemented with non-essential amino acids (SP + NEAA) (Formula 3, Table S3), N = 16/group. Mice from each diet group received either 7.5 nmol/kg G108 or vehicle control resulting in the following six treatment groups, N = 8/group: Vehicle/SP, 7.5 nmol/kg G108/SP, Vehicle/SP +EAA, 7.5 nmol/kg G108/SP + EAA, Vehicle/SP + NEAA, 7.5 nmol/kg G108 + NEAA. Food intake and body weight was measured every 48 h. Prior to commencing their respective diets, baseline body composition analysis was (EchoMRI) was carried out in addition to body composition analysis on day 11. Tail venesection was carried out on day 13 of the study 4 h following respective treatments. […]
To measure energy expenditure, DIO mice were placed into a Comprehensive Laboratory Animal Monitoring System (CLAMS, Columbus instruments, Columbus, US). […] Food intake was also measured electronically without the need to remove food. […] Feed efficiency was calculated as mg body weight change per kJ consumed.

[2] = Pharmacokinetic profile of G108 in rats (plasma radioimmunoassay); settings: rat, in vivo, sc, male Wistar rats, single 0.5 mg subcutaneous dose, sampled 1.5-72 h, n = 4, read-out: time at which peak plasma concentrations were achieved
Protocol: 10-week-old male Wistar rats (N = 4) were administered with 0.5 mg G108 via 100 μL subcutaneous injection. Tail venesection was performed to collect 100 μL blood samples prior to injection and at 1.5, 3, 6, 24, 48 and 72 h after injection. Blood samples were immediately frozen on ice, centrifuged at 8000 × g for 10 min at 4°C, and the plasma supernatant collected. Samples were stored at −20°C.
An in-house radioimmunoassay was used to determine peptide concentrations in the rat plasma. Antiserum (RA553/3) was produced in rabbits against the purified glucagon (1–16) fragment which specifically cross-reacted with the N-terminal glucagon-like sequence of G108. Direct iodination was used to produce Iodine-125 glucagon which was purified by reverse phase high pressure liquid chromatography. The assay was performed in a total volume of 700 μL of 0.06 M phosphate EDTA buffer containing 0.3% BSA. All samples were assayed in duplicate and the standard curve was set using 5 pmol/mL G108 in assay buffer. The assay was incubated for 3 nights at 4°C prior to separation via charcoal into free and antibody-bound label. A γ-counter was used to count the pellet and supernatant and the ratio of free to bound label was calculated. The plasma peptide concentration was calculated using two phase exponential decay with respect to the relevant standard curve.

lean C57BL/6 mice = assay: Chronic low-dose (5 nmol/kg) G108 study in lean mice; assay type: in vivo, mouse; settings: 5 nmol/kg s.c. daily
Protocol: For the low-dose G108 (5 nmol/kg) study, C57BL/6 mice matched for weight and age (14-week-old, N = 14) were single housed and split into two treatment groups (N = 7/group). All mice were subcutaneously administered with the allocated treatment daily at 9 am for 21 days. Mice were administered with vehicle control (HPLC water) or 5 nmol/kg G108 (diluted in sterile HPLC water). All mice had ad libitum access to a standard protein diet containing 20 kcal% protein (diet D11112201) (Table S2). Food intake and body weight were measured daily prior to treatment each day. EchoMRI analysis was carried out at baseline and days 7, 14 and 21. Tail venesection was carried out on day 7 of study, pre- and 4 h post treatment dose. Blood samples were immediately transferred on ice, centrifuged at 2800 × g for 10 min prior to plasma total amino acid analysis. Forelimb grip strength testing was performed at baseline, day 14 and day 21. On day 21, following a 4 h fast, mice were culled, and the following muscle groups dissected and weighed: quadriceps, gastrocnemius, soleus, tibialis anterior, extensor digitorum longus.
Food intake was measured daily using a dedicated weighing scale and topped up accordingly. Body weight was recorded at 9 am daily or every 48 h using the same weighing scale. Body composition was measured using an EchoMRI analyser at various timepoints during chronic studies. Body composition measurements were taken on the same time of day to reduce intra-animal variability. Animals were placed in a transparent cylindrical Perspex tube and both ends secured with Perspex clips. The tubes containing the animal was then carefully placed into the MRI machine (EchoMRI −100H analyser, EchoMRI). Each scan lasted approximately 90 s where lean mass and fat mass were recorded in grams. Following the scan, the mice were removed from the Perspex tube and returned to their respective cages.
A grip strength meter (Bioseb, France) was used to measure grip strength. […] The maximum force, measured in g was recorded. Four consecutive measurements were made with a 1 min rest interval. An average of measurements was taken for each timepoint prior to subsequent analysis.
Plasma total amino acids were measured using fluorometric-based ELISA kits as described (MAK002, Sigma-Aldrich, Ab65347, Abcam). Plasma FGF21 was measured using a fluorescent based ELISA kit (ab229382, Abcam). Plasma triglyceride, cholesterol and leptin were measured using ELISA kits (ab65336, ab65390, ab199082, Abcam). Individual amino acids were measured using Gas Chromatography/Mass Spectrometry (WellChild laboratory, Evelina Children’s Hospital, St Thomas’s Hospital, London).

Question: Which “effects on weight loss and feed efficiency on SP diet supplemented with either EAAs or NEAAs” value [1] does the source give for CC[C@H](C)[C@H](NC(=O)[C@H](Cc1ccccc1)NC(=O)[C@H](CCC(=O)O)NC(=O)[C@H](CCC(N)=O)NC(=O)[C@H](C)NC(=O)[C@H](CCCNC(=N)N)NC(=O)[C@H](CCCCN)NC(=O)[C@H](C)NC(=O)[C@H](CC(=O)O)NC(=O)[C@H](CC(C)C)NC(=O)[C@H](Cc1ccc(O)cc1)NC(=O)[C@H](CCCNC(=N)N)NC(=O)[C@H](CO)NC(=O)[C@H](Cc1ccc(O)cc1)NC(=O)[C@H](CC(=O)O)NC(=O)[C@H](CO)NC(=O)[C@@H](NC(=O)[C@H](Cc1ccccc1)NC(=O)[C@@H](NC(=O)CNC(=O)[C@H](Cc1c[nH]cn1)NC(=O)C(C)(C)NC(=O)[C@@H](N)Cc1c[nH]cn1)[C@@H](C)O)[C@@H](C)O)C(=O)N[C@@H](CCC(=O)O)C(=O)N[C@@H](Cc1c[nH]c2ccccc12)C(=O)N[C@@H](CC(C)C)C(=O)N[C@@H](CC(C)C)C(=O)N[C@@H](CCC(N)=O)C(=O)N[C@@H](CO)C(=O)N[C@@H](Cc1c[nH]cn1)C(=O)N[C@@H](Cc1c[nH]cn1)C(=O)N[C@@H](CCC(N)=O)C(=O)N[C@@H](Cc1c[nH]cn1)C(=O)N[C@@H](Cc1c[nH]cn1)C(=O)N1CCC[C@H]1C(=O)N[C@@H](CO)C(=O)N1CCC[C@H]1C(=O)N1CCC[C@H]1C(=O)N1CCC[C@H]1C(=O)N[C@@H](CCCCNC(=O)[C@H](CC(N)=O)NC(=O)CC[C@H](NC(=O)CCCCCCCCCCCCCCCCC(=O)O)C(=O)O)C(N)=O [Peptide G108] (H-H[Aib]HGTFTSDYSRYLDAKRAQEFIEWLLQSHHQHHPSPPPK([Asn-γGlu-C18 diacid])-NH2; N-terminus and C-terminus assumed) here?
Answer: not suppressed

Question: And the Tmax [2]?
Answer: 24 h

Question: What about the “body composition (lean mass, EchoMRI)” value (lean C57BL/6 mice; 21 days, n = 7/group) of the same compound?
Answer: reduced lean mass

Question: And the “body weight gain compared with vehicle” value (lean C57BL/6 mice; 21 days, n = 7/group)?
Answer: prevented weight gain

Question: What about the “plasma total amino acids” value (lean C57BL/6 mice; day 7, n = 7/group) of the same compound?
Answer: sustained reduction in plasma amino acids

Question: What about the “weight of the quadriceps and gastrocnemius muscles” value (lean C57BL/6 mice; day 21, n = 7/group) of the same compound?
Answer: reduced

Question: And the forelimb grip strength (lean C57BL/6 mice; days 14 and 21, n = 7/group)?
Answer: reduced
